We go through eight compounds from BindingDB's records for doi:10.1016/j.bmc.2004.09.056 (Pfizer, 2005).

By IC50 is commonly meant the concentration that inhibits the measured activity by half. High values mean weaker potency, low ones greater potency.

For the assay, the target named is T1, Renin (Homo sapiens, UniProt P00797).
T1 sequence (P00797 whole entry): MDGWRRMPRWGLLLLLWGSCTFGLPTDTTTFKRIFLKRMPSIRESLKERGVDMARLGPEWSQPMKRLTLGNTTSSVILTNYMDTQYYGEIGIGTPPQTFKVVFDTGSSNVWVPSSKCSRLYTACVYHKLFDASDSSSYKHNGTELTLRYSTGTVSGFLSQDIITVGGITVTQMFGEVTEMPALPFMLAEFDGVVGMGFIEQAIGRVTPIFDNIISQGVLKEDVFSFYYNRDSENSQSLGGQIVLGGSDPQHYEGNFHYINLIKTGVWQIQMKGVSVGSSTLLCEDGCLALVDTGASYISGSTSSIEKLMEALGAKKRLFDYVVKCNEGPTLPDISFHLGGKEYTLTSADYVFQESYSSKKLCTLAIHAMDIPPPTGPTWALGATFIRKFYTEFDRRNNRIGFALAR
The experiment in a line: In Vitro Renin IC50 Determinations (Tandem GFP FRET Assay). The settings on record: pH 7.4; 22 °C. The source says:
The renin assay utilized a tandem Green Flourescent Protein (tGFP) substrate that was hydrolyzed by human rennin. The tGFP substrate contained a nine amino acid (Ile-His-Pro-Phe-His-Leu-Val-Ile-His) recognition sequence for human renin flanked by two GPF proteins (W1B and Topaz). Human rennin cleaves the leucine-valine site of the substrate linker. Once cleaved, the emission ratio changes. The change was monitored by the ratio of 530 nm (topaz) over 475 nm (W1B) with the excitation set at 432 nm and the cutoff at 515 nm. The assay used a 384 well plate format that was read using a Gemini XS Fluorometric plate reader (Molecular Devices). Compounds were screened at a starting concentration of 10 uM and used a fourfold eleven-point dilution regiment.
On to `COc1ccccc1COCCCOc1ccc([C@H]2CCNC[C@H]2NCc2ccc3occc3c2)cc1` (mixture of isomers) [mixture of cis isomers], for which it took 393 nM to reach half-maximal inhibition (IC50).

Compound `COc1ccccc1COCCCOc1ccc([C@H]2CCNC[C@H]2NCc2ccc3[nH]ccc3c2)cc1` (mixture of isomers) [(3S,4R)-N-(1H-indol-5-ylmethyl)-4-(4-{3-[(2-methoxyphenyl)methoxy]propoxy}phenyl)piperidin-3-amine] yielded a 50% inhibitory concentration (IC50) of 2280 nM. Against the preceding compound, the IC50 is about 5.8-fold higher.

In turn, `COc1ccccc1COCCCOc1ccc([C@H]2CCNC[C@H]2NCc2ccc3c(c2)NCCC3)cc1` [mixture of cis isomers] had a 50% inhibitory concentration (IC50) of 255 nM.

On to `COc1ccccc1COCCCOc1ccc([C@H]2CCNC[C@H]2NCc2ccc3cccnc3c2)cc1` (mixture of isomers) [mixture of cis isomers], for which the IC50 was found to be 175 nM.

`COc1ccccc1COCCCOc1ccc([C@H]2CCNC[C@H]2NCc2ccc3ccccc3c2)cc1` [(3S,4R)-4-(4-{3-[(2-methoxyphenyl)methoxy]propoxy}phenyl)-N-(naphthalen-2-ylmethyl)piperidin-3-amine] gave an IC50 of 61 nM.

As to `COc1ccc2cc(CN[C@@H]3CNCC[C@@H]3c3ccc(OCCCOCc4ccccc4OC)cc3)ccc2c1` (mixture of isomers) [(3S,4R)-N-[(6-methoxynaphthalen-2-yl)methyl]-4-(4-{3-[(2-methoxyphenyl)methoxy]propoxy}phenyl)piperidin-3-amine], the IC50 worked out at 73 nM.

Consider `COc1ccccc1COCCCOc1ccc([C@H]2CCNC[C@H]2NCc2ccc(-c3ccccc3)cc2)cc1` (mixture of isomers) [mixture of cis isomers], for which the IC50 is over 10000 nM.

The compound `COc1ccccc1COCCCOc1ccc([C@H]2CCNC[C@H]2NC(=O)c2ccc3ccccc3c2)cc1` (mixture of isomers) [mixture of cis isomers] yielded an IC50 of over 10000 nM.
